Data reported in patent publication US9603859B2, “Methods and products for increasing the rate of healing of tissue wounds” (BRIGHAM YOUNG UNIVERSITY, priority 2011, dated 2017).

How the values were obtained:
primary human MSC cells = experiment: Wound healing array q-PCR gene expression in mesenchymal stem cells; assay type: cell-based; details: 8 hours treatment
Text: To determine the role of synthetic Ceragenins CSA-13, 44 and 90 in wound healing using mesenchymal stem cells (MSC), targeted mRNA panels from SABiosciences, and primary cells from Lonza were selected. Cells were purchased from Lonza.com and used fresh for each test using recommended media and culture conditions. After treatment, mRNA was isolated using Qiagen RNeasy Mini Kit®, and quantified using a NanoDrop 2000® by UV at 260 nm and 260/280 ratio for purity. cDNA was made using a First Strand Kit® from SABiosciences and processed for real time PCR using a kit from the same company for selected analysis of wound healing pathways. Results from q-PCR were uploaded to the SABiosciences site and to Ingenuity.com web site for analysis and pathway mapping. SABiosciences wound healing array plates (Cat# PAHS-121) and innate/acquired immune response plates (PAHS-052) were used. These arrays are fully validated when used as recommended. On day 1, primary human MSC cells were plated at 200,000 cells/well using 6-well plates with 3 ml of recommended media—hMSC Basal Medium+BulletKit (50 ml Growth Supplement, 10 ml L-Glutamine and 0.5 ml Gentamicin Sulfate Amphotercin-B) for 24 hours. Only early passages of cells were used, and never from frozen stock. On day 2, cells were treated with compounds dissolved in DMSO diluted 1:1000 or more to avoid effects of the solvent. Final testing concentration for CSA-13 was 5.0 μM. Treatment lasted 8 hours, and was followed by RNA isolation using QIAGEN RNeasy Mini Kit® (74104). RNA was measured at 260/280 nm using a NanoDrop 2000® and normalized to 2.4 ng per well, cDNA preparation was done using QIAGEN First Strand kit 330401. q-PCR was run as absolute quantification and threshold set at 0.1 units. Dendritic cells were plated at 500,000 cells/well using 24-well plate with 500 ul of Lonza LGM-3 Complete Growth Medium with and without compound. Treatment lasted 8 hours, and was followed by RNA isolation using QIAGEN RNeasy Mini Kit® (74104). RNA was measured at 260/280 nm using NanoDrop2000® and normalized to 2.4 ng per well, cDNA preparation was done using QIAGEN First Strand kit 330401. PCR was run as absolute quantification and threshold set at 0.1 units. For the wound healing array, strong upregulation of growth factors such as HB-EGF and cell migration factors such as MMP1 and CXCL2 were found, indicating a clear potential for CSA as a modulator of wound healing. Additional gene expression data is provided in Tables 1-3 for CSA-13, 44, and 90, respectively.

[1] = tested on: chronic non-healing oral cutaneous fistula; experiment: Treatment of chronic non-healing oral cutaneous fistula in a horse; assay type: in vivo
Text: A horse with a chronic non-healing oral cutaneous fistula was first treated with two prior art treatments with no success. The first treatment was with an aqueous spray of Vetericyn (0.007% hypochlorite) for a period of 7 days. […]

[2] = tested on: torn right front shoulder wound; experiment: Treatment of torn right front shoulder wound in a horse; assay type: in vivo; details: 0.04% solution in water sprayed twice a day
Method: This wound occurs commonly in horses and usually takes 3 to 6 months to heal. Typically this wound will result in a significant loss of muscle in the region. This wound was treated twice a day with a 0.04% solution of CSA-44 in water. The tissue treatment composition was applied by spraying sufficient composition to wet the entire surface of the wound.

[3] = tested on: laceration to left hind cannon region; experiment: Treatment of laceration to left hind cannon region of a broodmare; assay type: in vivo; details: horse; 0.04% solution in water twice daily; no wrap
Method: A reining broodmare in Texas was involved in an accident resulting in a laceration to her left hind cannon region. The wound was 3 inches in length and 2 inches wide. The laceration extended all the way to the cannon bone, exposing the periosteum. This wound was also treated with a 0.04% solution of CSA-44 in water twice daily. No wrap was applied (i.e., no immobilization). The wound closed in 11 days with normal hair growth at 30 days. This type of wound would usually require aggressive wraps for 3 months with the possibility of other procedures being necessary for the excessive granulation tissue that commonly develops.

[4] = tested on: scratches (fungal infection of the lower extremities with secondary bacterial infection); experiment: Treatment of extreme case of scratches in a horse; assay type: in vivo
Text: A horse with an extreme case of scratches was successfully healed using CSA. Scratches is a fungal infection of the lower extremities in horses. This infection usually results in not only a fungal but also a secondary bacterial infection. In this case, the horse developed severe and debilitating granulation tissue of the ankle resulting in poor mobility due to cracking and bleeding. […] The chronic infection persisted for over two years despite the multiple attempts to treat with an antimicrobial. Due to the debilitating wound the horse was slated for slaughter. […] Normal hair growth and tissue was present in 4 weeks.

[5] = tested on: fungal infection of the skin (summer itch); experiment: Treatment of fungal infection of the skin (summer itch) in a show mare; assay type: in vivo; details: horse; 0.04% solution in water twice daily
Text: A show mare developed an uncontrollable fungal infection of the skin. This malady is commonly referred to as summer itch. A 0.04% solution of CSA-44 in water was used twice daily for 3 weeks resulting in complete regrowth of normal skin and hair. Normal treatment time periods for this problem usually range from 3 to 4 months.

Structure (SMILES): CCCCCCCCNCCC[C@@H](C)[C@H]1CC[C@H]2[C@@H]3[C@H](OCCCN)C[C@@H]4C[C@H](OCCCN)CC[C@]4(C)[C@H]3C[C@H](OCCCN)[C@]12C [CSA-13]
- Fold Regulation ANGPT1 (primary human MSC cells; CSA-13 at 5.0 μM): −2.0046
- Fold Regulation CCL7 (primary human MSC cells; CSA-13 at 5.0 μM): 1.6632
- Fold Regulation CSF2 (primary human MSC cells; CSA-13 at 5.0 μM): −2.4867
- Fold Regulation CXCL1 (primary human MSC cells; CSA-13 at 5.0 μM): 1.6181
- Fold Regulation CXCL2 (primary human MSC cells; CSA-13 at 5.0 μM): 4.873
- Fold Regulation CXCL5 (primary human MSC cells; CSA-13 at 5.0 μM): 2.0582
- Fold Regulation F3 (primary human MSC cells; CSA-13 at 5.0 μM): −3.3945
- Fold Regulation F13A1 (primary human MSC cells; CSA-13 at 5.0 μM): 2.0916
- Fold Regulation FGF2 (primary human MSC cells; CSA-13 at 5.0 μM): −1.633
- Fold Regulation FGF10 (primary human MSC cells; CSA-13 at 5.0 μM): 3.8659
- Fold Regulation HBEGF (primary human MSC cells; CSA-13 at 5.0 μM): 3.255
- Fold Regulation IL2 (primary human MSC cells; CSA-13 at 5.0 μM): 1.865
- Fold Regulation IL4 (primary human MSC cells; CSA-13 at 5.0 μM): −1.9944
- Fold Regulation IL6 (primary human MSC cells; CSA-13 at 5.0 μM): 3.1692
- Fold Regulation IL10 (primary human MSC cells; CSA-13 at 5.0 μM): −1.6166
- Fold Regulation ITGA2 (primary human MSC cells; CSA-13 at 5.0 μM): 3.5659
- Fold Regulation ITGB3 (primary human MSC cells; CSA-13 at 5.0 μM): −1.5243
- Fold Regulation MMP1 (primary human MSC cells; CSA-13 at 5.0 μM): 4.4172
- Fold Regulation PLAT (primary human MSC cells; CSA-13 at 5.0 μM): −2.1487
- Fold Regulation PLAU (primary human MSC cells; CSA-13 at 5.0 μM): 1.7849
- Fold Regulation PLAUR (primary human MSC cells; CSA-13 at 5.0 μM): 1.6286
- Fold Regulation PTGS2 (primary human MSC cells; CSA-13 at 5.0 μM): 3.3333
- Fold Regulation VEGFA (primary human MSC cells; CSA-13 at 5.0 μM): 1.7274
- Fold Regulation VTN (primary human MSC cells; CSA-13 at 5.0 μM): 2.0612

Structure (SMILES): CCCCCCCCOC(=O)CC[C@@H](C)[C@H]1CC[C@H]2[C@@H]3[C@H](OC(=O)CCN)C[C@@H]4C[C@H](OC(=O)CCN)CC[C@]4(C)[C@H]3C[C@H](OC(=O)CCN)[C@]12C [CSA-44]
- time to closure of the fistula and healthy tissue ([1]; 0.04% CSA-44 in water sprayed once daily): 7 days
- outcome of wound treatment ([1]; Vetericyn (0.007% hypochlorite) aqueous spray 7 days, Furacin Salve daily 5 days, 0.04% CSA-44 in water sprayed once daily 7 days): successfully treated
- muscle loss after healing [2]: without any apparent muscle loss
- time until wound closed and completely healed ([2]; wound 4 x 6 inches, 3 inches deep): 28 days
- time of normal hair growth [3]: 30 days
- time until wound closed [3]: 11 days
- time until normal hair growth and tissue present ([4]; 0.04% in water sprayed twice daily): 4 weeks
- outcome of wound treatment ([4]; CSA-44 0.04% in water sprayed twice daily for four weeks, comparators before CSA): successfully treated
- treatment time to complete regrowth of normal skin and hair [5]: 3 weeks
- Fold Regulation ACTA2 (primary human MSC cells): −1.9377
- Fold Regulation ACTB (primary human MSC cells): −1.7981
- Fold Regulation CCL2 (primary human MSC cells): −3.1925
- Fold Regulation CDH1 (primary human MSC cells): −2.7158
- Fold Regulation COL1A2 (primary human MSC cells): 1.5483
- Fold Regulation COL3A1 (primary human MSC cells): 1.7385
- Fold Regulation COL4A3 (primary human MSC cells): −2.4845
- Fold Regulation CTGF (primary human MSC cells): −24.5295
- Fold Regulation CTSK (primary human MSC cells): 1.6388
- Fold Regulation CTSL2 (primary human MSC cells): 1.7924
- Fold Regulation EGFR (primary human MSC cells): 1.5364
- Fold Regulation FGF7 (primary human MSC cells): 4.84
- Fold Regulation HGF (primary human MSC cells): 3.1098
- Fold Regulation IGF1 (primary human MSC cells): 1.6877
- Fold Regulation ITGB6 (primary human MSC cells): 1.6323
- Fold Regulation MMP9 (primary human MSC cells): 1.5543
- Fold Regulation SERPINE1 (primary human MSC cells): −2.9618
- Fold Regulation TGFBR3 (primary human MSC cells): −2.0462
- Fold Regulation TIMP1 (primary human MSC cells): 1.6126
- Fold Regulation WISP1 (primary human MSC cells): −1.9722
- Fold Regulation ANGPT1 (primary human MSC cells; CSA-13 at 5.0 μM): −2.0857
- Fold Regulation CCL7 (primary human MSC cells; CSA-13 at 5.0 μM): 2.1961
- Fold Regulation CSF2 (primary human MSC cells; CSA-13 at 5.0 μM): −1.8551
- Fold Regulation CXCL2 (primary human MSC cells; CSA-13 at 5.0 μM): 14.3964
- Fold Regulation F13A1 (primary human MSC cells; CSA-13 at 5.0 μM): 2.0963
- Fold Regulation FGF2 (primary human MSC cells; CSA-13 at 5.0 μM): −1.6016
- Fold Regulation FGF10 (primary human MSC cells; CSA-13 at 5.0 μM): 2.2811
- Fold Regulation HBEGF (primary human MSC cells; CSA-13 at 5.0 μM): 3.5463
- Fold Regulation IL2 (primary human MSC cells; CSA-13 at 5.0 μM): 2.1928
- Fold Regulation IL6 (primary human MSC cells; CSA-13 at 5.0 μM): 4.0387
- Fold Regulation IL10 (primary human MSC cells; CSA-13 at 5.0 μM): −2.0128
- Fold Regulation ITGA2 (primary human MSC cells; CSA-13 at 5.0 μM): 16.0648
- Fold Regulation ITGB3 (primary human MSC cells; CSA-13 at 5.0 μM): −1.5802
- Fold Regulation MMP1 (primary human MSC cells; CSA-13 at 5.0 μM): 68.9688
- Fold Regulation PLAT (primary human MSC cells; CSA-13 at 5.0 μM): −1.754
- Fold Regulation PLAU (primary human MSC cells; CSA-13 at 5.0 μM): 1.6131
- Fold Regulation PLAUR (primary human MSC cells; CSA-13 at 5.0 μM): 2.5454
- Fold Regulation PTGS2 (primary human MSC cells; CSA-13 at 5.0 μM): 48.6907
- Fold Regulation VEGFA (primary human MSC cells; CSA-13 at 5.0 μM): 4.6052
